Paper PMC7252906 (Toxicology and applied pharmacology, 2019)
Where “and” joins values, the source holds several entries; their conditions need not be identical. Identical values can stand only once. Like-named read-outs stand apart in the source and are kept apart here.

Key:
[1] = not given; remark: listed apart in the source
[2] = male Wistar rats, IV 11 mg/kg, 6 minutes post-dosing; ref Dormard et al. (1975); cited from earlier work
[3] = Radiochemical HPLC profiling of urine after [^14C]DMAE; details: Oral
[4] = male Wistar Han rats, gavage 10 mg/kg, 24 h
[5] = male Wistar Han rats, gavage 10 mg/kg, 24 h, listed as [^14C]DMAE, 10 mg/kg
[6] = male Wistar Han rats, gavage 100 mg/kg, 24 h
[7] = male Wistar Han rats, gavage 500 mg/kg, 24 h
[8] = male Wistar Han rats, gavage 500 mg/kg, 72 h
[9] = female B6C3F1 mice, gavage 10 mg/kg, 24 h
[10] = female B6C3F1 mice, gavage 10 mg/kg, 24 h, listed as [^14C]DMAE, 10 mg/kg
[11] = female B6C3F1 mice, gavage 100 mg/kg, 24 h
[12] = female B6C3F1 mice, gavage 100 mg/kg, 24 h, listed as [^14C]DMAE, 100 mg/kg
[13] = female B6C3F1 mice, gavage 500 mg/kg, 24 h
[14] = female B6C3F1 mice, gavage 500 mg/kg, 24 h, listed as [^14C]DMAE, 500 mg/kg
[15] = female B6C3F1 mice, gavage 500 mg/kg, 72 h
[16] = male B6C3F1 mice, gavage 500 mg/kg, 24 h

## CN(C)CCO [DMAE, Dimethylaminoethanol]
Male Wistar Han rats, IV 10 mg/kg, 24 h, listed as [^14C]DMAE, 10 mg/kg
  % Dose Recovered, Urine: 39.2 ± 7.80 % dose
[4]
  % Dose Recovered, CO2: 3.67 ± 0.440 % dose
  % Dose Recovered, Feces: 0.206 ± 0.242 % dose
  % Dose Recovered, Tissues and GI Tract (includes contents): 33.9 ± 2.20 % dose
  % Dose Recovered, VOCs: 0.153 ± 0.037 % dose
  percent radioactivity remaining in all tissues, excluding GI tract: ~28%
[5]
  % Dose Recovered, Total Recovered: 95 % dose and 94.9 ± 3.20 % dose
  % Dose Recovered, Urine: 57.0 ± 4.10 % dose
[6]
  % Dose Recovered, CO2: 4.84 ± 0.700 % dose
  % Dose Recovered, Feces: 0.302 ± 0.061 % dose
  % Dose Recovered, Tissues and GI Tract (includes contents): 30.1 ± 3.80 % dose
  % Dose Recovered, Total Recovered: 93.9 ± 2.90 % dose
  percent radioactivity remaining in all tissues, excluding GI tract: ~25%
Male Wistar Han rats, gavage 100 mg/kg, 24 h, listed as [^14C]DMAE, 100 mg/kg
  % Dose Recovered, Urine: 59 % dose and 58.6 ± 5.10 % dose
[7]
  % Dose Recovered, CO2: 4.78 ± 0.810 % dose
  % Dose Recovered, Feces: 0.518 ± 0.472 % dose
  % Dose Recovered, Tissues and GI Tract (includes contents): 24.3 ± 2.10 % dose
  % Dose Recovered, Total Recovered: 92.1 ± 1.90 % dose
  % Dose Recovered, VOCs: 0.198 ± 0.038 % dose
  percent radioactivity remaining in all tissues, excluding GI tract: ~21%
Male Wistar Han rats, gavage 500 mg/kg, 24 h, listed as [^14C]DMAE, 500 mg/kg
  % Dose Recovered, Urine: 62 % dose and 62.1 ± 1.50 % dose
[8]
  % Dose Recovered, Feces: 1.11 ± 1.01 % dose
  % Dose Recovered, Tissues and GI Tract (includes contents): 14.5 ± 1.20 % dose
  % Dose Recovered, Total Recovered: 92.0 ± 2.20 % dose
  % Dose Recovered, Urine: 68.6 ± 2.00 % dose
Male Wistar Han rats, gavage, all dose levels (10, 100, 500 mg/kg), 24 h
  administered dose found as expired CO2: 4–5%
Male and female Wistar Han rats, oral administration, range over groups
  total administered dose recovered: 92–98%
rats, gavage, range over groups
  excretion in urine: 57–64%
rats, range over groups
  excreted as exhaled CO2: ≤ 6%
[1]; B6C3F1 mice, oral, 24 h post-exposure, range over groups
  administered dose recovered in tissues (excluding GI tract): 26–44%
[1]; [9]
  % Dose Recovered, Feces: 1.94 ±0.490 % dose
  % Dose Recovered, Tissues and GI Tract (includes contents): 57.6 ± 3.00 % dose
  % Dose Recovered, Total Recovered: 99.3 ± 1.60 % dose
  % Dose Recovered, VOCs: 1.66 ± 0.340 % dose
  percent radioactivity remaining in all tissues, excluding GI tract: ~44%
[1]; [10]
  % Dose Recovered, CO2: 22 % dose and 22.3 ± 3.68 % dose
  % Dose Recovered, Urine: 16 % dose and 15.8 ± 4.00 % dose
[1]; [11]
  % Dose Recovered, Feces: 1.10 ± 0.410 % dose
  % Dose Recovered, Tissues and GI Tract (includes contents): 44.5 ± 1.70 % dose
  % Dose Recovered, Total Recovered: 81.6 ± 4.40 % dose
  % Dose Recovered, VOCs: 1.27 ± 0.160 % dose
  percent radioactivity remaining in all tissues, excluding GI tract: ~30%
[1]; [12]
  % Dose Recovered, CO2: 16 % dose and 15.5 ± 0.600 % dose
  % Dose Recovered, Urine: 18 % dose and 17.9 ± 3.90 % dose
[1]; [13]
  % Dose Recovered, Feces: 0.713 ± 0.273 % dose
  % Dose Recovered, Tissues and GI Tract (includes contents): 38.4 ± 16.1 % dose
  % Dose Recovered, Total Recovered: 97.1 ± 15.2 % dose
  % Dose Recovered, VOCs: 1.51 ± 0.210 % dose
  percent radioactivity remaining in all tissues, excluding GI tract: ~32%
[1]; [14]
  % Dose Recovered, CO2: 13 % dose and 13.2 ± 1.80 % dose
  % Dose Recovered, Urine: 43 % dose and 43.4 ± 11.5 % dose
[1]; [15]
  % Dose Recovered, CO2: 21.0 ± 2.20 % dose
  % Dose Recovered, Feces: 2.24 ± 1.31 % dose
  % Dose Recovered, Tissues and GI Tract (includes contents): 19.0 ± 3.70 % dose
  % Dose Recovered, Total Recovered: 97.2 ± 6.40 % dose
  % Dose Recovered, Urine: 53.8 ± 3.90 % dose
  % Dose Recovered, VOCs: 1.08 ± 0.190 % dose
  total administered dose recovered in tissues: 16%
[1]; female B6C3F1 mice, gavage, across all dose groups
  radioactivity in feces and VOCs: < 2%
[1]; [16]
  % Dose Recovered, CO2: 17.8 ± 1.10 % dose
  % Dose Recovered, Feces: 13.7 ± 14.9 % dose
  % Dose Recovered, Tissues and GI Tract (includes contents): 31.8 ± 1.50 % dose
  % Dose Recovered, Total Recovered: 92.1 ± 13.6 % dose
  % Dose Recovered, Urine: 27.1 ± 20.0 % dose
  % Dose Recovered, VOCs: 1.75 ± 0.319 % dose
[1]; mice, gavage, range over groups
  excretion in urine: 16–43%
[1]; mice, range over groups
  excreted as exhaled CO2: 13–22%
[1]; mouse studies, range over groups
  total percentage of administered dose recovered: 82–99%
[2]
  % of IV dose present in the plasma: 0.16%
[3]; Mouse/Female, [^14C]DMAE 10 mg/kg
  Estimated percentage of area of DMAE peak in urine chromatogram: 8%
[3]; Mouse/Female, [^14C]DMAE 100 mg/kg
  Estimated percentage of area of DMAE peak in urine chromatogram: 82%
[3]; Mouse/Female, [^14C]DMAE 500 mg/kg
  Estimated percentage of area of DMAE peak in urine chromatogram: 66%
[3]; Mouse/Male, [^14C]DMAE 500 mg/kg
  Estimated percentage of area of DMAE peak in urine chromatogram: 100%
